Reference: US20250205177A1, “HONEYBEE ANTIDOTE COMPOSITION” (priority 2023, published 2025)

Columns and labels:
[1] = system: honeybees (Apis mellifera) chronically exposed to carbaryl; assay: Long-term indoor feeding with chronic oral exposure to carbaryl; format: in vivo; conditions: 100 ppm curcumin; for mortality rate of honeybees: 10 days
Source text: FIG. 4 is a graph of a Kaplan-Meier survival curve for test honeybees (Apis mellifera) chronically exposed to 2.5 and 5 ppm of carbaryl through oral exposure.
FIGS. 5A and 5B show graphs of the mortality rate of honeybees for 10 days after being chronically exposed to 2.5 ppm (5A) and 5 ppm (5B) of carbaryl.

[2] = system: newly emerged honeybees (nurse bees) poisoned by carbaryl; assay: Curcumin feeding of newly emerged (nurse) honeybees topically poisoned by carbaryl; format: in vivo; conditions: for mortality rate: nurse bees, indoor feeding
Method: (§1) […] These experiments were performed separately on newly emerged honeybees and foragers. While 0.063 ug of an insecticide was administered to the chest of each newly emerged honeybee, 0.11 ug of the insecticide was applied to each forager bee. The intoxicated honeybees were exposed to carbaryl and then fed supplementary food. While the control group consumed only sugar syrup, the experimental group consumed supplementary food containing curcumin. All honeybee groups were fed for 48 hours under controlled laboratory conditions.

[3] = system: detoxification enzymes (oxidases) of honeybees; assay: Gene expression / activity of detoxification enzymes 24 hours after carbaryl exposure; format: in vivo; conditions: 200 ppm curcumin
Method: FIGS. 8 and 9 show graphs for explaining gene expression analysis of detoxification enzymes in SU (50% sugar syrup), CU (50% sugar syrup +200 ppm of curcumin), and the control group (ACET, exposed to only 2 ul of acetone and given sugar), 24 hours after being exposed to carbaryl.

[4] = system: foragers (field bees) poisoned by carbaryl; assay: Curcumin feeding of forager (field) bees topically poisoned by carbaryl; format: in vivo, honeybees; conditions: indoor feeding
Method: as §1

[5] = system: honeybee colonies used for melon pollination; assay: Field experiment in melon greenhouses: colony strength factors; format: in vivo, honeybees
Method: The impact observed when adding 100 ppm of curcumin to greenhouses for growing melons was assessed. Thirty greenhouses owned by three farmers were used in this study. While one group of honeybees was given a solution supplemented with 100 ppm of curcumin (CU100), the control hives were given only 50% sugar syrup. Colony strength factors were measured every 10 days.

[6] = 100 ppm curcumin, melon greenhouses at Seongju, long-term

COc1cc(/C=C/C(=O)CC(=O)/C=C/c2ccc(O)c(OC)c2)ccc1O [curcumin]
survival rate of honeybees in exposure experiments to carbaryl ([1]; Kaplan-Meier, 2.5 and 5 ppm carbaryl oral): highest | mortality rate of honeybees ([1]; chronic exposure to 2.5 ppm carbaryl, control 38%): 21% | mortality rate of honeybees ([1]; chronic exposure to 5 ppm carbaryl, control 78%): 55% | mortality rate of nurse bees compared with control (in words) ([2]; curcumin at varying concentrations after carbaryl exposure): noticeable reduction | mortality rate ([2]; 50 ppm curcumin, reduced from 80): 50 | mortality rate ([2]; 90 ppm curcumin, from 80): 33 | mortality rate ([2]; 100 ppm curcumin, reduced from 80): 24 | mortality rate ([2]; 110 ppm curcumin, from 80): 34 | activity of the detoxification enzymes [3]: even higher level | mortality rate ([4]; 50 ppm curcumin, reduced from 35): 24 | mortality rate ([4]; 90 ppm curcumin, from 35): 24 | mortality rate ([4]; 100 ppm curcumin, reduced from 35): 18 | mortality rate ([4]; 110 ppm curcumin, from 35): 24 | rate of hive weight reduction ([5]; 100 ppm curcumin compared with only sucrose solution): lower | number of both adult and larval honeybees [5, 6]: tended to increase | weight of honey storage (honey) [5, 6]: no change | activities of honeybees in outdoor experiments ([5]; group treated with 100 ppm curcumin): excellent
